The test system of data set [1] is Influenza A virus. Nature of the data set: Antiviral activity against Influenza A virus (A/WSN/1933(H1N1)) harboring neuraminidase H275Y mutant infected in MDCK cells assessed as inhibition of virus-induced cytopathic effect after 48 hrs by CellTiter96 Aqueous non-radioactive cell proliferation assay. Format: functional, organism-based.
Data set [2] concerns Influenza A virus. Nature of the data set: Antiviral activity against Influenza A virus (A/WSN/1933(H1N1)) harboring neuraminidase H275Y mutant infected in BALB/c mouse assessed as mouse survival at 0.96 umol/day, po for 5 consecutive days measured on day 10 post dose. Format: functional.
Data set [3] has as its system Influenza A virus. The data set can be described thus: Antiviral activity against Influenza A virus (A/WSN/1933(H1N1)) harboring neuraminidase H275Y mutant infected in BALB/c mouse assessed as mouse survival at 0.96 umol/day, po for 5 consecutive days measured on day 14 post dose. The format is functional.
The subject of data set [4] is Mus musculus. Nature of the data set: Toxicity in BALB/c mouse infected with Influenza A virus (A/WSN/1933(H1N1)) harboring neuraminidase H275Y mutant assessed as change in body weight at 0.96 umol/day, po for 5 consecutive days. The format is organism-based. To be noted: in vivo.
Data set [5] deals with Influenza A virus. The data set can be described thus: Antiviral activity against Influenza A virus (A/WSN/1933(H1N1)) harboring neuraminidase H275Y mutant infected in BALB/c mouse assessed as recovery of mouse weight at 0.96 umol/day, po for 5 consecutive days measured on day 14 post dose. The format is functional, organism-based.

Calls of active or inactive are those of the source. The rule behind the calls is not given here.

For orientation: EC50 means the concentration needed to bring the measured effect to its halfway point. For the molecule `CCC(CC)[C@H](NC(C)=O)[C@@H]1[C@H](OC(=O)NCCCO)[C@@H](C(=O)O)C[C@H]1NC(=N)N`, the EC50 in data set [1] is 1010 nM.
Consider `CCC(CC)[C@H](NC(C)=O)[C@@H]1[C@H](OC(=O)NCCCN)[C@@H](C(=O)O)C[C@H]1NC(=N)N`, for which the EC50 in data set [1] is 405 nM.
As for `CCOC(=O)C1=C[C@@H](OC(CC)CC)[C@H](NC(C)=O)[C@@H](N)C1` [OSELTAMIVIR], in data set [2], the Survival turned out to be 20%.
Turning to `CCC(CC)OC1C=C(C(=O)O)C[C@H](N)[C@H]1NC(C)=O` (some centres not stated), in data set [1], the EC50 is 3520 nM.
Take `CCC(CC)[C@H](NC(C)=O)[C@@H]1[C@H](OC(=O)NCCCNC(=O)/C=C/c2ccc(O)c(O)c2)[C@@H](C(=O)O)C[C@H]1NC(=N)N`: the EC50 in data set [1] came to 18.1 nM. Also, in data set [3], the Survival stood at 90%. Also, the Activity entry in data set [4] was “Non-Toxic”. Moreover, in data set [5], the result was Active.
Take `CCC(CC)[C@H](NC(C)=O)[C@@H]1[C@H](OC(=O)NCCCOC(=O)/C=C/c2ccc(O)c(O)c2)[C@@H](C(=O)O)C[C@H]1NC(=N)N`: in data set [1], the EC50 was 15.5 nM. The result in data set [3] and in data set [5] was Active. Also, the Activity entry in data set [4] is given as “Non-Toxic”.
Turning to `CCC(CC)[C@H](NC(C)=O)[C@@H]1[C@H](OC(=O)NCCCOCCCc2ccc(O)c(O)c2)[C@@H](C(=O)O)C[C@H]1NC(=N)N`, the EC50 in data set [1] worked out at 71.6 nM. For the same molecule, the result in data set [3] and in data set [5] was Active. Also, the Activity result in data set [4] is “Non-Toxic”.
For `CCC(CC)[C@H](NC(C)=O)[C@@H]1[C@H](O)[C@@H](C(=O)O)C[C@H]1NC(=N)N` [PERAMIVIR ANHYDROUS], the EC50 in data set [1] stood at 643 nM.

Source of the values: ChEMBL document CHEMBL4251642 (Eur J Med Chem, 2018).
